# According to the RepoRT retention time repository (doi:10.1007/s00216-021-03828-0):
# Legend:
# Details in all cases: stereoisomer not certain
# [1] = RP, Merck Supelco Ascentis Express C18, 100 × 2.1 mm, 2 µm, 39 °C, 0.3 mL/min, estimated dead time 0.73 min; A: water + 0.1% formic acid, pH 3; B: acetonitrile + 0.1% formic acid, pH 3; gradient (min/%B) 0/5 2/5 17/99.9 20/99.9
# [2] = RP, Merck Supelco Ascentis Express C18, 100 × 2.1 mm, 2 µm, 40 °C, 0.2 mL/min, estimated dead time 1.1 min; A: water + 0.1% formic acid, pH 3; B: acetonitrile + 0.1% formic acid, pH 3; gradient (min/%B) 0/5 2/5 17/99.9 20/99.9
# [3] = RP, Merck Supelco Ascentis Express C18, 100 × 2.1 mm, 2 µm, 40 °C, 0.4 mL/min, estimated dead time 0.55 min; A: water + 0.1% formic acid, pH 3; B: acetonitrile + 0.1% formic acid, pH 3; gradient (min/%B) 0/5 2/5 17/99.9 20/99.9
# [4] = RP, Merck Supelco Ascentis Express C18, 100 × 2.1 mm, 2 µm, 40 °C, 0.25 mL/min, estimated dead time 0.88 min; A: water + 0.1% formic acid, pH 3; B: acetonitrile + 0.1% formic acid, pH 3; gradient (min/%B) 0/5 2/5 17/99.9 20/99.9
# [5] = RP, Merck Supelco Ascentis Express C18, 100 × 2.1 mm, 2 µm, 40 °C, 0.2 mL/min, estimated dead time 1.1 min; A: water + 0.1% formic acid, pH 3; B: acetonitrile + 0.1% formic acid, pH 3; gradient (min/%B) 0/5 2/5 17/99.9 20/99.9; remark: listed apart in the source
Compound,LC retention time [1] [min],LC retention time [2] [min],LC retention time [3] [min],LC retention time [4] [min],LC retention time [5] [min]
CC(O)c1ccccc1 (centres undefined) [1-PHENYLETHANOL],7.38,8.6,6.7,7.9,
"O=c1cccc(O)[nH]1 [2,6-DIHYDROXYPYRIDINE]",0.947,1.53,0.73,1.19,
Nc1ccccc1O [2-AMINOPHENOL],,1.34,,,
O=C(O)c1ccc2ccccc2n1 [2-QUINOLINECARBOXYLATE],3.6,4.63,2.93,4.05,
Nc1cc(O)cc(C(=O)O)c1 [3-AMINO-5-HYDROXYBENZOATE],,1.32,,,
O=C(O)c1cccc(O)c1 [3-HYDROXYBENZOATE],4.28,5.31,3.62,4.72,
COc1cc(CCN)ccc1O [3-METHOXYTYRAMINE],1.13,1.78,0.863,1.37,
CC1C(=O)Nc2ccccc21 (centres undefined) [3-METHYL-2-OXINDOLE],6.16,7.09,5.56,6.5,
O=C(O)C(O)COP(=O)(O)O (centres undefined) [3-PHOSPHOGLYCERATE],,1.39,0.663,,
Cc1ccc(O)c(O)c1 [4-METHYLCATECHOL],1.62,2.48,1.24,1.97,
O=C1CCCCO1 [5-VALEROLACTONE],2.73,3.96,2.06,3.24,
NCCc1cc(O)c(O)cc1O [6-HYDROXYDOPAMINE],,,0.893,,
O=C(O)C(O)C(O)C(O)C(O)COP(=O)(O)O (centres undefined) [6-PHOSPHOGLUCONATE],,1.32,,,
CC(C)CCCC(C)C1CCC2C3=CC=C4CC(O)CCC4(C)C3CCC21C (centres undefined) [7-DEHYDROCHOLESTEROL],15.1,11.4,9.92,10.8,
CC(CCCC(C)(C)O)C1CCC2C3CC=C4CC(O)CCC4(C)C3CCC12C (centres undefined) [25-HYDROXYCHOLESTEROL],17.8,13.4,17,18.3,
"Nc1ncnc2c1ncn2C1OC(CO)C2OP(=O)(O)OC21 (centres undefined) [ADENOSINE 2',3'-CYCLIC PHOSPHATE]",,1.34,,,1.32
Nc1ncnc2c1ncn2C1OC(CO)C(O)C1O (centres undefined) [ADENOSINE],,1.33,,,1.35
CCCCC(CC)COC(=O)c1ccccc1C(=O)OCC(CC)CCCC (centres undefined) [BIS(2-ETHYLHEXYL)PHTHALATE],17.7,19,17,18.3,
Cn1c(=O)c2c(ncn2C)n(C)c1=O [CAFFEINE],4.12,4.96,3.63,4.48,
CC12CCC(=O)C=C1CCC1C2C(O)CC2(C)C(C(=O)CO)CCC12 (centres undefined) [CORTICOSTERONE],8.25,9.16,7.73,8.66,

Compound,LC retention time [1] [min],LC retention time [2] [min],LC retention time [3] [min],LC retention time [4] [min],LC retention time [5] [min]
Nc1nc2c(ncn2C2OC3COP(=O)(O)OC3C2O)c(=O)[nH]1 (centres undefined) [CYCLIC GMP],,1.34,,,1.33
CC(=O)OCC(=O)C1CCC2C3CCC4=CC(=O)CCC4(C)C3CCC12C (centres undefined) [DEOXYCORTICOSTERONE ACETATE],11.1,12.2,10.5,11.6,
CC(C)=CCCC(C)C1CCC2C3CC=C4CC(O)CCC4(C)C3CCC12C (centres undefined) [DESMOSTEROL],15.1,16.6,14.3,15.8,
CC12CCC3c4ccc(O)cc4CCC3C1CCC2O (stereo not drawn) [ESTRADIOL-17ALPHA],9.22,10.3,8.64,9.66,
CCOC(=O)Cc1c[nH]c2ccccc12 [ETHYL 3-INDOLEACETATE],9.1,10.2,8.46,9.59,
O=C(O)CCCC(=O)O [GLUTARATE],1.34,,,,
Oc1ccc(O)cc1 [HYDROQUINONE],,,,,4.63
NC(=O)CCCCC1CCSS1 (centres undefined) [LIPOAMIDE],6.65,7.65,6.08,7.07,
O=C(O)C=CC(=O)O [MALEATE],,,0.693,,
CCC=CCC1C(=O)CCC1CC(=O)OC (centres undefined) [METHYL JASMONATE],9.96,11.2,9.27,10.5,
CC1(O)CCOC(=O)C1 (centres undefined) [MEVALOLACTONE],,1.84,0.903,1.46,
CC(=O)NC(CCC(=O)O)C(=O)O (centres undefined) [N-ACETYLGLUTAMATE],0.897,1.36,,1.06,1.35
CNCCc1c[nH]c2ccccc12 [N-METHYLTRYPTAMINE],3.89,4.88,3.32,4.33,
CCCCCCCCC=CCCCCCCCCCCCCCC(=O)[O-] [NERVONATE],18.2,18.7,17.4,18.7,
NCC(O)c1ccc(O)c(O)c1 (centres undefined) [NORADRENALINE],,,1.07,,
O=C(O)CCC(=O)C(=O)O [OXOGLUTARATE],,,,,1.41
O=C1CCC(C(=O)O)N1 (centres undefined) [OXOPROLINE],,1.34,,,1.32
NCCc1ccccc1 [PHENETHYLAMINE],,,0.963,1.54,
O=CCc1ccccc1 [PHENYLACETALDEHYDE],,,1.09,,
NCC(O)c1ccccc1 (centres undefined) [PHENYLETHANOLAMINE],0.883,1.4,0.673,1.09,

Compound,LC retention time [1] [min],LC retention time [2] [min],LC retention time [3] [min],LC retention time [4] [min],LC retention time [5] [min]
O=C(O)C(=O)Cc1ccccc1 [PHENYLPYRUVATE],4.98,,,,
CC(=CCC1=C(C)C(=O)c2ccccc2C1=O)CCCC(C)CCCC(C)CCCC(C)C (centres undefined) [PHYLLOQUINONE],14.1,15.5,13.3,14.7,
O=C([O-])c1ccccn1 [PICOLINATE],,,,,1.37
Nc1nc2nccnc2c(=O)[nH]1 [PTERIN],,1.33,,,1.33
O=C(O)c1ccc[nH]1 [PYRROLE-2-CARBOXYLATE],3.07,1.54,0.73,1.19,
O=C(O)c1cccnc1C(=O)O [QUINOLINATE],0.937,1.38,,1.07,1.38
c1ccc2ncccc2c1 [QUINOLINE],,10.2,2.49,9,
NCCc1c[nH]c2ccc(O)cc12 [SEROTONIN],1.12,1.77,0.857,1.35,
CC=CC=CC(=O)[O-] [SORBATE],5.93,7.02,5.28,6.4,
CCCCCCCCCCCCCCCC(O)C(N)CO (centres undefined) [SPHINGANINE],10.9,12.1,10.6,11.5,
CC(C)=CCCC(C)=CCCC(C)=CCCC=C(C)CCC=C(C)CCC=C(C)C [SQUALENE],14,15.6,13.6,14.8,
Cn1cnc2c1c(=O)[nH]c(=O)n2C [THEOBROMINE],1.78,2.69,1.4,2.12,
O=C(O)C=C(CC(=O)O)C(=O)O [TRANS-ACONITATE],0.887,,,,
O=C/C=C/c1ccccc1 [TRANS-CINNAMALDEHYDE],10.7,11.7,10.1,11.1,
NCCc1c[nH]c2ccccc12 [TRYPTAMINE],3.5,4.56,2.77,3.97,
NC(Cc1c[nH]c2ccccc12)C(=O)O (centres undefined) [TRYPTOPHAN],2.72,,,,
NCCc1ccc(O)cc1 [TYRAMINE],0.883,1.4,0.673,1.09,
NC(Cc1ccc(O)cc1)C(=O)O (centres undefined) [TYROSINE],,1.33,,,
O=C([O-])c1c[nH]c(=O)[nH]c1=O [URACIL 5-CARBOXYLATE],,1.39,,1.07,1.36
